Assay results as given in the NIST ThermoML archive (doi:10.1021/je400159e).

How the values were obtained:
[1] = Crystal; Adiabatic calorimetry
[2] = Molar enthalpy of transition or fusion; conditions: Crystal; Adiabatic calorimetry
[3] = molar heat capacity at constant pressure; conditions: 101.33 kPa, Vacuum adiabatic calorimetry

CCOC(=O)C(NC(C)=O)C(=O)OCC [diethyl 2-acetamidomalonate]
Conditions	Molar enthalpy of transition or fusion [kJ/mol]	Triple point temperature [K]
[1]	–	368.72
[2]	34.3	–

[3]
Conditions	molar heat capacity at constant pressure [J/K/mol]
78.24 K, Crystal	110.9
80 K, Crystal	117.6
80.92 K, Crystal	118.8
84.07 K, Crystal	125.4
85 K, Crystal	125.6
87.1 K, Crystal	128.6
90 K, Crystal	132.8
90.03 K, Crystal	132.3
92.96 K, Crystal	137.3
95 K, Crystal	139.4
95.86 K, Crystal	140.8
98.72 K, Crystal	143.3
100 K, Crystal	145.5
102.57 K, Crystal	147.5
105 K, Crystal	151
106.44 K, Crystal	151.4
109.33 K, Crystal	154.8
110 K, Crystal	156.2
112.24 K, Crystal	157.6
115 K, Crystal	161
115.17 K, Crystal	161.2
118.1 K, Crystal	164.5
120 K, Crystal	165.6
121.02 K, Crystal	167.2
123.94 K, Crystal	169.6
125 K, Crystal	170
126.84 K, Crystal	172.1
129.74 K, Crystal	174.4
130 K, Crystal	174.2
132.64 K, Crystal	176.4
135 K, Crystal	178.3
135.54 K, Crystal	179.1
138.43 K, Crystal	181.8
140 K, Crystal	182.4
141.33 K, Crystal	184
144.22 K, Crystal	186.7
145 K, Crystal	186.3
147.11 K, Crystal	188.2
149.99 K, Crystal	190.2
150 K, Crystal	190.2
153.39 K, Crystal	192.9
155 K, Crystal	194.1
157.07 K, Crystal	195.6
160 K, Crystal	197.9
160.22 K, Crystal	198.3
163.12 K, Crystal	200.2
165 K, Crystal	201.8
166.04 K, Crystal	202.4
168.95 K, Crystal	204.2
170 K, Crystal	205.6
171.83 K, Crystal	206.6
174.74 K, Crystal	208.8
175 K, Crystal	209.5
177.68 K, Crystal	211
180 K, Crystal	213.4
180.6 K, Crystal	213.6
183.5 K, Crystal	216.3
185 K, Crystal	217.3
186.43 K, Crystal	218.3
189.39 K, Crystal	219.7
190 K, Crystal	221.2
192.32 K, Crystal	222.4
195 K, Crystal	225.1
195.24 K, Crystal	225
198.14 K, Crystal	227.4
200 K, Crystal	229
201.06 K, Crystal	229.4
204.69 K, Crystal	233
205 K, Crystal	232.9
208.24 K, Crystal	235.4
210 K, Crystal	236.8
211.12 K, Crystal	237.9
214.07 K, Crystal	239.9
215 K, Crystal	240.8
216.99 K, Crystal	243.1
219.9 K, Crystal	244
220 K, Crystal	244.7
222.8 K, Crystal	246.7
225 K, Crystal	248.7
225.75 K, Crystal	249.4
228.73 K, Crystal	251.2
230 K, Crystal	252.7
231.68 K, Crystal	254.7
234.64 K, Crystal	256.9
235 K, Crystal	256.7
237.58 K, Crystal	259.4
240 K, Crystal	260.7
240.49 K, Crystal	260.9
244 K, Crystal	264.3
245 K, Crystal	264.8
247.5 K, Crystal	267.7
250 K, Crystal	268.8
250.46 K, Crystal	269.6
253.49 K, Crystal	272.7
255 K, Crystal	273
256.52 K, Crystal	275
259.52 K, Crystal	277.5
260 K, Crystal	277.2
262.52 K, Crystal	280.1
265 K, Crystal	281.4
265.5 K, Crystal	282.4
268.47 K, Crystal	283.8
270 K, Crystal	285.7
271.42 K, Crystal	286.1
274.37 K, Crystal	289.5
275 K, Crystal	290.2
277.31 K, Crystal	290.7
280 K, Crystal	294.7
280.26 K, Crystal	293.6
283.28 K, Crystal	297.4
285 K, Crystal	299.3
286.35 K, Crystal	300.4
289.39 K, Crystal	302.9
290 K, Crystal	304.1
292.4 K, Crystal	306.6
295 K, Crystal	309
295.4 K, Crystal	308.5
298.15 K, Crystal	312.2
298.4 K, Crystal	312
300 K, Crystal	314.1
301.4 K, Crystal	314.7
304.39 K, Crystal	318.4
305 K, Crystal	319.3
307.37 K, Crystal	321.4
310 K, Crystal	324.7
310.35 K, Crystal	325.7
313.32 K, Crystal	329.7
315 K, Crystal	330.4
316.34 K, Crystal	332.9
319.44 K, Crystal	336.2
320 K, Crystal	336.2
322.53 K, Crystal	340.6
325 K, Crystal	342.2
325.61 K, Crystal	343
328.68 K, Crystal	346.8
330 K, Crystal	348.5
331.74 K, Crystal	350.7
334.79 K, Crystal	354.3
335 K, Crystal	355
337.83 K, Crystal	358
340 K, Crystal	361.7
340.85 K, Crystal	362.6
343.87 K, Crystal	367.1
345 K, Crystal	368.6
372.62 K, Liquid	463.3
375 K, Liquid	465
375.92 K, Liquid	465.4
379.02 K, Liquid	467.3
380 K, Liquid	467.7
382.13 K, Liquid	468.9
385 K, Liquid	470.4
385.23 K, Liquid	470.4
388.37 K, Liquid	472.1
390 K, Liquid	472.9
391.51 K, Liquid	473.6
394.65 K, Liquid	475.2
395 K, Liquid	475.3
